Like-named read-outs stand apart in the source and are kept apart here.
Assays:
[1] = DPPH radical scavenging assay; assay type: biochemical; design: DPPH517nm % SA ± SD: dose or concentration left out as unconfirmed; conditions: for DPPH517nm % SA ± SD: mean of three measurements; for EC50: read-out: DPPH517nm EC50 ± SD
From the text: (§1) Three in vitro antioxidant assays (DPPH, FRAP, and ABTS) were utilized to evaluate the antioxidant property of the synthesized compounds. The DPPH (α, α-diphenyl-β-picrylhydrazyl) assay is the well-known approach to determine antioxidant activity using a stable free radical DPPH, measure the absorbance change, and calculate the absorbance change in the percentage of scavenging activity. […] For example, the ferric-tripyridyltriazine (Fe^3+-TPTZ, colorless) complex is reduced to ferrous tripyridyltriazine (Fe^2+-TPTZ) at low pH and introduces a blue color with maximum absorption at 593 nm. The change in absorbance is related to antioxidant activity. However, a significant limitation of these in vitro tests is the non-physiological measurement conditions (no enzymatic condition and no transition metal ion chelating activity); therefore, the results obtained may not reflect the antioxidant activity of the source material under the biological conditions that exist in humans and animals. The ABTS assay involves a more drastic radical that is chemically produced. The use of ABTS for antioxidant activity determination of hydrophilic and lipophilic pure compounds has attracted interest due to its solubility in organic and aqueous media and stability in a wide pH range [31].
The DPPH method was followed and modified from a previous study. Trolox was used as a reference. The DPPH stock solution at a concentration of 0.625 mM was prepared in 50% ethanol and kept at 4 °C in the dark. On the day of the experiment, 0.208 mM fresh DPPH working solution was freshly prepared by further diluting with 50% ethanol. […] Each reaction was carried out in a 96-well plate, and 100 μL of test preparation and DPPH solution were added. The 96-well plate was then shaken well for 10 min and kept in the dark at room temperature for 20 min, and the absorbance was recorded at 515–517 nm. According to the method described, delocalization also results in a deep violet color and is quantified as a percentage of scavenging activity. % scavenging activity (SA) = 100 × (Asample − Ablank)/(Acontrol − Ablank)(1) where Acontrol and Asample are the absorbances of the test DPPH without and with a sample, respectively. Ablank is the absorbance of the solvent used. The EC50 values were calculated from the relationship curve of %SA versus sample concentration. The experiment was carried out at least in triplicate.

[2] = FRAP (ferric reducing antioxidant power) assay; assay type: biochemical; conditions: Trolox equivalent
From the text: as §1
The FRAP assay is a method for assessing antioxidant power. Briefly, the FRAP reagent was prepared from acetate buffer pH 3.6, 10 mM TPTZ solution in 40 mM HCl and 20 mM FeCl3.6 H2O in relative proportions of 10:1:1, v/v, respectively. The FRAP reagent was freshly prepared daily. A solution of 5 μL of the sample (3–300 μM, approx.) was mixed with 180 μL of the FRAP reagent in a 96-well plate. The mixture was shaken in the dark for 10 min and incubated at 37 °C for 20 min, and the absorbance was determined at 593 nm. The solution without the sample was used as a blank. All determinations were made in triplicate. Trolox was used as a standard antioxidant and plot the calibration curve between absorbance and concentration. Quercetin was applied as the reference compound. The FRAP values were calculated by comparing the absorbance change in the test sample and represented in μM of Trolox equivalent per μM of sample.

[3] = ABTS radical cation scavenging assay; assay type: biochemical
From the text: as §1
The ABTS assay was prepared by reaction of 5 mL of a 7 mM aqueous ABTS (2,2′-azino-bis (3-ethylbenzthiazoline-6-sulphonic acid) solution and 2.45 mM potassium persulfate solution (K2S2O8). After preparation and storage in the dark for 16 h, the radical cation solution was further diluted in ethanol to absorb about 0.7 at 734 nm. Trolox and test sample solutions were prepared in stock solution with DMSO and diluted with ethanol. A solution of 100 μL of the sample was mixed with 100 μL of the ABTS reagent in a 96-well plate. The mixture was shaken in a dark place for 10 min and incubated at 37 °C for 20 min, and the absorbance was determined at 734 nm. Absorbance determinations were recorded immediately and not more than 1 h after adding the reagent. The solution without the sample was used as a blank. All the determinations were made in triplicate. The sample’s scavenging percentage was calculated from this equation: scavenging percentage = (Absorbance control − Absorbance sample) × 100/Absorbance control. EC50 values were calculated from the relationship curve of %scavenging versus sample concentration.

[4] = MTT cytotoxicity assay, HEK293 cells; assay type: cell-based; conditions: human, HEK293 cells, 100 μM; for viability at 24 h, 100 µM: read-out: % Viability ± SD (at 100 μM) HEK293 24 h; for viability at 48 h, 100 µM: read-out: % Viability ± SD (at 100 μM) HEK293 48 h
Description: (§2) HEK293, HACAT, and HeLa cells were grown in modified Eagles’ minimum essential medium (EMEM, Gibco) with 10% fetal bovine serum (FBS, Gibco), 1% of 100 U/mL streptomycin and 100 U/mL penicillin (Gibco). Cells were seeded in culture flasks and maintained in an incubator at 37 °C in a humidified atmosphere with 5% CO2. After reaching 80–90% of confluence, cells were detached by incubation with 0.25% trypsin-0.2% EDTA (Gibco) for 5 min and plated for experiments.
(§3) This study examined cell cultures of HEK293, HACAT, and HeLa cells. The cytotoxicity of the test samples was carried out by the MTT (3-(4,5-dimethylthiazol-2-yl)-2,5-diphenyltetrazolium bromide) assay. The cells were seeded in 96-well microliter plates (2.0 × 10^4 cells/well). Stock solutions of the test compounds were prepared in DMSO. After 24 h, cells were treated with different concentrations of samples and diluted with media to obtain the final desired concentration. The treated cells were then incubated at 37 °C and 5% CO2 for 24 and 48 h. After incubation, the medium was replaced with 0.05% w/v of MTT solution in PBS and further incubated for 3 h. The solution was then discarded and DMSO was added to dissolve the formed formazan crystals. Each well’s absorbance (A) was measured at 570 nm using a microplate reader (FLUOstar Omega^TM, BMG Labtech, Ortenberg, Germany). All experiments were carried out in triplicate and repeated for at least three experiments.

[5] = tested on: HEK293 cells; assay: MTT cytotoxicity assay, HEK293 cells; assay type: cell-based; conditions: 24 and 48 h treatment
Description: as §2, §3

[6] = MTT cytotoxicity assay, HACAT cells; assay type: cell-based; conditions: human; for viability at 24 h, 100 µM: read-out: % Viability ± SD (at 100 μM) HACAT 24 h; for viability at 48 h, 100 µM: read-out: % Viability ± SD (at 100 μM) HACAT 48 h
Description: as §2, §3

[7] = tested on: HeLa cell; assay: MTT anticancer activity assay, HeLa cells; assay type: cell-based
Description: as §2, §3

[8] = tested on: HeLa cells; assay: Cellular ROS assay (ROS deep red fluorescence kit); assay type: cell-based; conditions: pretreatment 50, 100, 150 μM for 24 h; 5 mM H2O2 30 min
Description: ROS is the main contributor to cell death. These reactive molecules are formed by several mechanisms and can be detected by various techniques. In order to investigate the level of cellular ROS after treatment with compounds, the accumulation of intracellular ROS in cells was quantified with a cellular ROS assay kit (ab186029, Abcam, Boston, USA) fluorescence assay. After pretreatment with 2f, 2j, and 3i at 50, 100, and 150 μM for 24 h, cell stress was induced with 5 mM hydrogen peroxide for 30 min. The cells in each well were collected and resuspended with a serum-free medium containing the ROS red probe. Subsequently, cells were incubated at 37 °C for 30 min in the dark, and fluorescence was read at Ex/Em = 650/675 nm.
In this study, Hela cells were seeded overnight at 20,000 cells/90 µL/well in a black wall/clear bottom 96-well plate. Cells included those untreated (control) and those pre-treated with compounds at various concentrations (50, 100, 150 μM) for 24 h. The ROS deep red assay solution (100 μL/well) was added and incubated at 5% CO2, 37 °C incubator for 30 min. The fluorescence signal was monitored at Ex/Em = 650/675 nm (cut off = 665 nm) with bottom read mode within 30 min (cellular ROS assay kit, ab186029, abcam).

[9] = Homo sapiens, 24 h, read-out: % Viability ± SD (at 100 μM) HeLa 24 h
[10] = Homo sapiens, 48 h, read-out: % Viability ± SD (at 100 μM) HeLa 48 h

EC50 [1] [µM] | EC50 ([3]; read-out: ABTS734nm EC50 ± SD) [µM] | SMILES | DPPH517nm % SA ± SD [1] [%] | FRAP593nm Value ± SD (TE) [2] | ABTS734nm % Scavenging at 500 µM [3] [%] | viability at 24 h, 100 µM [4] [%] | viability at 48 h, 100 µM [4] [%] | Toxicity in HEK293 cells [5] | viability at 24 h, 100 µM [6] [%] | viability at 48 h, 100 µM [6] [%] | IC50 ([7]; 24 h) [µM] | Anticancer activity on cervical cancer cells ([7]; HeLa, 24 h) | IC50 ([7]; Homo sapiens, HeLa, 24 h) [µM] | viability at 100 µM [7, 9] [%] | viability at 100 µM [7, 10] [%] | melting point [°C] | Cellular ROS fluorescence intensity vs H2O2-treated cells [8]
– | – | O=C(c1ccc([N+](=O)[O-])cc1)c1c(-c2ccc([N+](=O)[O-])cc2)oc2cc(O)ccc2c1=O [2i, 7-hydroxy-3-(4-nitrobenzoyl)-2-(4-nitrophenyl)-4H-chromen-4-one] | 13.75 ± 3.31 | 0.08 ± 0.006 µM Trolox/1 µM of Synthesized Compounds | 8.52 ± 3.89 | 65.1 ± 1.21 | 41.2 ± 2.11 | more toxic | 59.8 ± 5.77 | 27.5 ± 1.24 | 34.9 ± 2.41 | contained anticancer activity | 34.9 | 38.7 ± 5.22 | 12.5 ± 1.45 | 290 to 291 | –
59 ± 11.2 | 13.9 ± 0.74 | CC(=O)c1ccc(O)c(O)c1OC(=O)c1ccccc1 [3i, 6-Acetyl-2,3-dihydroxyphenyl benzoate] | 90.55 ± 0.36 | 3.16 ± 0.350 µM Trolox/1 µM of Synthesized Compounds | 78.80 ± 1.14 | 110 ± 1.2 | 107 ± 4.18 | – | 104.8 ± 0.88 | 84.9 ± 3.05 | – | – | – | 99.9 ± 4.19 | 37.1 ± 1.96 | – | decreased significantly
> 750 | – | O=C(c1ccccc1)c1c(-c2ccccc2)oc2cc(O)ccc2c1=O [2d, 3-Benzoyl-7-hydroxy-2-phenyl-4H-chromen-4-one] | 15.85 ± 4.61 | 0.02 ± 0.003 µM Trolox/1 µM of Synthesized Compounds | 27.59 ± 2.46 | 88.7 ± 1.33 | 87.8 ± 1.8 | – | 77.8 ± 6.93 | 72.5 ± 3.41 | – | contained anticancer activity | 166.9 ± 0.49 | 85.17 ± 0.79 | 42.36 ± 0.09 | 270 to 271 | –

From PMC10096453, “One-Pot Synthesis and Evaluation of Antioxidative Stress and Anticancer Properties of an Active Chromone Derivative” (Molecules, 2023)
